Results reported in ChEMBL document CHEMBL1201862, “PubChem BioAssay data set” (2004).
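Step 1: Grow cells in 96-well plates. Step 2: Expose to compound for 48 hours at 5 concentrations. Step 3: Interpolate endpoints linearly; if unreached, use highest concentration. GI50 marks 50% less growth.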 Active and inactive are the calls of the source. Rule as the data show it: active = GI50 up to about 1.1 µM and inactive = higher.

Assays:
Test in all cases: growth of human tumour cells (NCI), 48 h
[1] = test system: UO-31
[2] = test system: LOX IMVI
[3] = test system: HOP-92
[4] = test system: NCI-H460
[5] = test system: EKVX
[6] = test system: OVCAR-8
[7] = test system: COLO 205
[8] = test system: SN12C
[9] = test system: SW-620
[10] = test system: NCI-H522
[11] = test system: SK-MEL-28
[12] = test system: MOLT-4
[13] = test system: SNB-75
[14] = test system: HCT-116
[15] = test system: SK-MEL-2
[16] = test system: SNB-19
[17] = test system: SR

Measured: GI50

Oc1ccncc1-c1cnccc1O
inactive: [1] > 100 µM | [2] > 100 µM | [3] > 100 µM | [4] 37.5 µM | [5] > 100 µM | [6] > 100 µM | [7] > 100 µM | [8] > 100 µM | [9] > 100 µM | [10] > 100 µM | [11] > 100 µM | [12] > 100 µM | [13] > 100 µM | [14] > 100 µM

O=C1CC(c2ccccc2)=Nc2ccccc2N1
inactive: [1] > 100 µM | [2] 35 µM | [3] 81.1 µM | [15] > 100 µM | [4] 42 µM | [5] > 100 µM | [6] > 100 µM | [7] 98.9 µM | [8] > 100 µM | [9] 21.1 µM | [10] > 100 µM | [11] > 100 µM | [12] > 100 µM | [16] > 100 µM | [17] > 100 µM | [13] > 100 µM | [14] 86.5 µM

COc1cc2c3cc1Oc1c(OC)c(OC)cc4c1[C@@H](Cc1ccc(O)c(c1)Oc1ccc(cc1)C[C@@H]3N(C)CC2)N(C)CC4.c1ccccc1
inactive: [1] 15.7 µM | [2] 17.1 µM | [3] 8.28 µM | [15] 16.9 µM | [4] 25.2 µM | [5] 13.9 µM | [6] 16.8 µM | [8] 18.7 µM | [9] 16.2 µM | [10] 7.55 µM | [11] 15.3 µM | [12] 10.9 µM | [16] 20.4 µM | [17] 2.33 µM | [13] 6.27 µM | [14] 9.16 µM

COc1cc(C2C3=C(CCCC3=O)N(c3ccc(C)cc3)C3=C2C(=O)CCC3)c([N+](=O)[O-])cc1OC
inactive: [1] > 100 µM | [2] 83.6 µM | [3] 52 µM | [4] > 100 µM | [5] > 100 µM | [8] > 100 µM | [9] > 100 µM | [11] 87.3 µM | [12] 24.2 µM | [16] > 100 µM | [17] 54.2 µM | [13] 24.4 µM

CC1(C)CC(N2CCN(C3CC(C)(C)NC(C)(C)C3)CC2)CC(C)(C)N1
inactive: [1] > 100 µM | [2] > 100 µM | [3] > 100 µM | [4] > 100 µM | [5] > 100 µM | [6] > 100 µM | [8] > 100 µM | [9] > 100 µM | [10] > 100 µM | [11] > 100 µM | [12] > 100 µM | [16] > 100 µM | [17] > 100 µM | [13] > 100 µM | [14] > 100 µM

C=C(COC(C)=O)CC(OC(C)=O)c1ccccc1 (configuration not stated)
inactive: [1] > 100 µM | [2] > 100 µM | [3] > 100 µM | [15] > 100 µM | [4] > 100 µM | [5] > 100 µM | [6] > 100 µM | [7] > 100 µM | [8] > 100 µM | [9] > 100 µM | [10] > 100 µM | [11] > 100 µM | [12] 52.2 µM | [16] > 100 µM | [13] > 100 µM | [14] > 100 µM

O=C1CC(CC(=O)C2CCCCC2=O)C(=O)N1 (configuration not stated)
inactive: [1] > 100 µM | [2] > 100 µM | [3] > 100 µM | [4] > 100 µM | [5] > 100 µM | [6] > 100 µM | [7] > 100 µM | [8] > 100 µM | [9] > 100 µM | [10] > 100 µM | [11] > 100 µM | [16] > 100 µM | [17] > 100 µM | [13] > 100 µM | [14] > 100 µM

C#CCN(Cc1ccc2nc(-c3ccccc3)c(N)nc2c1)c1cc(OC)c(OC)c(OC)c1
inactive: [1] 23.1 µM | [2] 25.2 µM | [15] 23.1 µM | [4] 22 µM | [5] 31.2 µM | [6] 30.4 µM | [7] 21.2 µM | [8] 32.1 µM | [9] 36.5 µM | [10] 20.9 µM | [11] 37.1 µM | [12] 12.5 µM | [16] 40.5 µM | [17] 13.9 µM | [13] 30.4 µM | [14] 19.2 µM

N#CC(=C1C=CC(=NO)C=C1)c1ccc(Cl)cc1
inactive: [1] 11.5 µM | [2] 3.22 µM | [3] 20 µM | [15] 4.36 µM | [4] 18.2 µM | [6] 19.1 µM | [7] 16.8 µM | [8] 16.5 µM | [9] 7.21 µM | [10] 2.47 µM | [11] 15.7 µM | [12] 5.74 µM | [16] 42.4 µM | [17] 4.83 µM | [13] 24.3 µM | [14] 7.52 µM
